We go through 29 molecules from paper PMC6736568, “Discovery of Novel Anti-cryptosporidial Activities From Natural Products by in vitro High-Throughput Phenotypic Screening” (Frontiers in Microbiology, 2019).

Structures can show the parent of a compound that is named as a salt. Where two headings read alike, the source gives them in different places.

The subject of one series is Cryptosporidium parvum. The series is described as follows: qRT-PCR assay of the growth of C. parvum in vitro in HCT-8 host cells (primary and secondary screening, EC50). The following applies: Cryptosporidium parvum, HCT-8; for inhibition at 10 µM: primary screening at 10 uM, read-out: Inhibition (%). The class given is cell-based. For orientation: In qPCR the cycle at which signal appears reflects the starting amount.

The mark [1] stands for this setting: primary screening at 10 uM, treated vs control.

Take `OC[C@H]1O[C@@H](Oc2ccc(O)cc2)[C@H](O)[C@@H](O)[C@@H]1O` [ARBUTIN]: the “Hs18S ΔCT” value in the series with HCT-8 host cells (Hs18S) (human, 41 h, 10 μM) amounted to 0.01. In “in vitro” (human), the cytotoxicity at 41 h, 10 µM stood at 0.5%. The inhibition at 10 µM in the series on Cryptosporidium parvum was determined as 16.1%.

As for `COC(=O)C1=CCCN(C)C1` [ARECOLINE HYDROBROMIDE], the “Hs18S ΔCT” value in the series with HCT-8 host cells (Hs18S) (setting [1]) is -0.47. Besides, the cytotoxicity at 10 µM in “in vitro” was -38.7%. Also, the inhibition at 10 µM with Cryptosporidium parvum is -6.72%.

Turning to `COc1cccc2c1cc([N+](=O)[O-])c1c(C(=O)O)cc3c(c12)OCO3` [ARISTOLOCHIC ACID], in the series on HCT-8 host cells (Hs18S) (setting [1]), the “Hs18S ΔCT” value is listed as -0.03. In addition, the cytotoxicity at 41 h, 10 µM in “in vitro” is -1.8%. In the series with Cryptosporidium parvum, the inhibition at 10 µM was 8.39%.

In the case of `C[C@@H]1CC[C@H]2[C@@H](C)C(=O)O[C@@H]3O[C@@]4(C)CC[C@@H]1[C@]32OO4` [ARTEMISININ], in the series with HCT-8 host cells (Hs18S) (human, 41 h, 10 μM), the “Hs18S ΔCT” value was 0.00. For the same molecule, the cytotoxicity at 41 h, 10 µM in the series “in vitro” (human) worked out at 0%. In the series with Cryptosporidium parvum, the inhibition at 10 µM is 16.7%.

Take `CCCCCC(=O)Cc1cc(O)cc(O)c1C(=O)Oc1cc(CC(=O)CCCCC)c(C(=O)O)c(OC)c1` [ARTHONIOIC ACID]: the “Hs18S ΔCT” value with HCT-8 host cells (Hs18S) (human, 41 h, 10 μM) stood at 0.02. Besides, the cytotoxicity at 41 h, 10 µM in “in vitro” (human) amounted to 1.1%. Further, in the series on Cryptosporidium parvum, the inhibition at 10 µM was -25.4%.

With `O=C1O[C@H]([C@@H](O)CO)C(O)=C1O` [ASCORBIC ACID], the “Hs18S ΔCT” value with HCT-8 host cells (Hs18S) (human, 41 h, 10 μM) is given as 0.44. For the same molecule, the cytotoxicity at 41 h, 10 µM in “in vitro” (human) turned out to be 26.2%. Also, in the series with Cryptosporidium parvum, the inhibition at 10 µM came to 12%.

In the case of `C[C@H]1[C@H](C)CC[C@]2(C(=O)O)CC[C@]3(C)C(=CC[C@@H]4[C@@]5(C)C[C@@H](O)[C@H](O)[C@@](C)(CO)[C@@H]5CC[C@]43C)[C@H]12` [ASIATIC ACID], in the series on HCT-8 host cells (Hs18S) (human, 41 h, 10 μM), the “Hs18S ΔCT” value was -0.29. For the same molecule, the cytotoxicity at 41 h, 10 µM in the series “in vitro” (human) was -22.7%. For the same molecule, in the series on Cryptosporidium parvum, the inhibition at 10 µM amounted to 25.1%.

For the molecule `CC1=C(/C=C/C(C)=C/C=C/C(C)=C/C=C/C=C(C)/C=C/C=C(C)/C=C/C2=C(C)C(=O)[C@@H](O)CC2(C)C)C(C)(C)C[C@H](O)C1=O` [ASTAXANTHIN], the “Hs18S ΔCT” value in the series with HCT-8 host cells (Hs18S) (human, 41 h, 10 μM) is -0.43. Moreover, in the series “in vitro” (human), the cytotoxicity at 41 h, 10 µM was -34.8%. The inhibition at 10 µM with Cryptosporidium parvum was found to be 45.1%.

For the molecule `COC(=O)c1c(C)cc(OC(=O)c2c(C)cc(O)c(C=O)c2O)c(C)c1O` [ATRANORIN], the “Hs18S ΔCT” value in the series on HCT-8 host cells (Hs18S) (human, 41 h, 10 μM) is on record as 1.02. Also, in the series “in vitro” (human), the cytotoxicity at 41 h, 10 µM worked out at 50.7%. Further, the inhibition at 10 µM in the series on Cryptosporidium parvum is -45.9%.

Consider `CN1[C@@H]2CC[C@H]1C[C@@H](OC(=O)C(CO)c1ccccc1)C2` (stereo partly shown) [ATROPINE SULFATE], for which the “Hs18S ΔCT” value in the series on HCT-8 host cells (Hs18S) (setting [1]) was found to be 0.26. Also, the cytotoxicity at 10 µM in the series “in vitro” stood at 16.3%. For the same molecule, in the series with Cryptosporidium parvum, the inhibition at 10 µM came to 3.7%.

Take `C#CCCCCCCCCCCCC(O)CC(O)COC(C)=O` (stereo not shown) [AVOCADYNE ACETATE]: the “Hs18S ΔCT” value in the series on HCT-8 host cells (Hs18S) (human, 41 h, 10 μM) is on record as 0.19. The cytotoxicity at 41 h, 10 µM in “in vitro” (human) was determined as 12.2%. For the same molecule, the inhibition at 10 µM in the series with Cryptosporidium parvum was 15.8%.

For `C=CCCCCCCCCCCCC(O)CC(O)COC(C)=O` (stereo not shown) [AVOCATIN A], the “Hs18S ΔCT” value with HCT-8 host cells (Hs18S) (human, 41 h, 10 μM) is given as 0.00. Also, the cytotoxicity at 41 h, 10 µM in the series “in vitro” (human) was -0.1%. In addition, the inhibition at 10 µM in the series on Cryptosporidium parvum stood at 46%.

For the molecule `C/C=C(\C)C(=O)O[C@H]1C[C@@H](OC(C)=O)[C@@]2(C(=O)OC)CO[C@H]3[C@@H](O)[C@@](C)([C@]45O[C@@]4(C)[C@H]4C[C@@H]5O[C@@H]5OC=C[C@@]54O)[C@H]4[C@]1(CO[C@]4(O)C(=O)OC)[C@@H]32` [AZADIRACHTIN], the “Hs18S ΔCT” value in the series with HCT-8 host cells (Hs18S) (human, 41 h, 10 μM) is listed as 0.00. Further, the cytotoxicity at 41 h, 10 µM in “in vitro” (human) was -0.1%. In addition, the inhibition at 10 µM in the series with Cryptosporidium parvum worked out at 23.7%.

In the case of `O=C(O)CCCCCCCC(=O)O` [AZELAIC ACID], the “Hs18S ΔCT” value with HCT-8 host cells (Hs18S) (human, 41 h, 10 μM) is 0.03. In addition, the cytotoxicity at 41 h, 10 µM in “in vitro” (human) worked out at 1.8%. For the same molecule, the inhibition at 10 µM in the series on Cryptosporidium parvum turned out to be 6.72%.

For `CC(=O)O[C@H]1C(=O)[C@@]2(C)[C@H]([C@H](OC(=O)c3ccccc3)[C@]3(O)C[C@H](O)C(C)=C1C3(C)C)[C@]1(OC(C)=O)CO[C@@H]1C[C@@H]2O` [BACCATIN III], the “Hs18S ΔCT” value in the series on HCT-8 host cells (Hs18S) (setting [1]) was found to be 0.08. Besides, in “in vitro”, the cytotoxicity at 10 µM was 5.2%. Moreover, in the series on Cryptosporidium parvum, the inhibition at 10 µM was determined as 1.76%.

As to `O=C(O)[C@H]1O[C@@H](Oc2cc3oc(-c4ccccc4)cc(=O)c3c(O)c2O)[C@H](O)[C@@H](O)[C@@H]1O` [BAICALIN], the “Hs18S ΔCT” value in the series on HCT-8 host cells (Hs18S) (setting [1]) was -0.23. Moreover, in the series “in vitro” (human), the cytotoxicity at 41 h, 10 µM is -17.1%. Also, the inhibition at 10 µM in the series with Cryptosporidium parvum is -13%.

In the case of `CCCCCCCCCCCCCCCCCCOCC(O)CO` (stereo not shown) [BATYL ALCOHOL], the “Hs18S ΔCT” value in the series with HCT-8 host cells (Hs18S) (human, 41 h, 10 μM) is -0.57. In addition, in “in vitro” (human), the cytotoxicity at 41 h, 10 µM was -48%. The inhibition at 10 µM in the series on Cryptosporidium parvum was determined as 41.3%.

As for `NC[C@H]1O[C@H](O[C@H]2[C@H](O)[C@@H](O[C@H]3O[C@H](CO)[C@@H](O)[C@H](N)[C@H]3O)[C@H](N)C[C@@H]2N)[C@H](N)[C@@H](O)[C@@H]1O` [BEKANAMYCIN SULFATE], the “Hs18S ΔCT” value in the series on HCT-8 host cells (Hs18S) (human, 41 h, 10 μM) turned out to be 0.13. Further, the cytotoxicity at 41 h, 10 µM in the series “in vitro” (human) amounted to 8.7%. Besides, the inhibition at 10 µM with Cryptosporidium parvum amounted to 4.16%.

As for `S=C=NCc1ccccc1` [BENZYL ISOTHIOCYANATE], the “Hs18S ΔCT” value in the series on HCT-8 host cells (Hs18S) (setting [1]) was determined as 0.57. Besides, the cytotoxicity at 41 h, 10 µM in “in vitro” (human) came to 32.8%. The inhibition at 10 µM with Cryptosporidium parvum came out at 91.8%. Besides, in the series on Cryptosporidium parvum (secondary screening at 3.3 uM, read-out: % Inhibition (3.3 uM)), the inhibition at 3.3 µM was 14%.

In the case of `COc1c2ccoc2cc2oc(=O)ccc12` [BERGAPTEN], the “Hs18S ΔCT” value with HCT-8 host cells (Hs18S) (setting [1]) was determined as 0.06. Further, the cytotoxicity at 10 µM in the series “in vitro” was determined as 4.3%. For the same molecule, the inhibition at 10 µM in the series on Cryptosporidium parvum is -22.3%.

Regarding `COc1c(O)cc2c(c1O)[C@@H]1O[C@H](CO)[C@@H](O)[C@H](O)[C@H]1OC2=O` [BERGENIN], the “Hs18S ΔCT” value in the series with HCT-8 host cells (Hs18S) (human, 41 h, 10 μM) was found to be 0.38. Further, the cytotoxicity at 41 h, 10 µM in the series “in vitro” (human) is 23.1%. Also, the inhibition at 10 µM in the series with Cryptosporidium parvum stood at 36%.

For `C[N+](C)(C)CC(=O)O` [BETAINE HYDROCHLORIDE], the “Hs18S ΔCT” value with HCT-8 host cells (Hs18S) (human, 41 h, 10 μM) is reported as -0.38. Also, the cytotoxicity at 41 h, 10 µM in the series “in vitro” (human) is -30%. Also, the inhibition at 10 µM in the series with Cryptosporidium parvum turned out to be 19.9%.

For `C=C(C)[C@@H]1CC[C@]2(C(=O)O)CC[C@]3(C)[C@H](CC[C@@H]4[C@@]5(C)CC[C@H](O)C(C)(C)[C@@H]5CC[C@]43C)[C@@H]12` [BETULINIC ACID], in the series on HCT-8 host cells (Hs18S) (setting [1]), the “Hs18S ΔCT” value is on record as -0.23. For the same molecule, the cytotoxicity at 10 µM in “in vitro” is -17.4%. Besides, the inhibition at 10 µM with Cryptosporidium parvum came out at 33%.

Turning to `C=C(C)[C@@H]1CC[C@]2(CO)CC[C@]3(C)[C@H](CC[C@@H]4[C@@]5(C)CC[C@H](O)C(C)(C)[C@@H]5CC[C@]43C)[C@@H]12` [BETULIN], the “Hs18S ΔCT” value in the series on HCT-8 host cells (Hs18S) (setting [1]) is -0.49. Besides, in the series “in vitro”, the cytotoxicity at 10 µM is -40.4%. For the same molecule, the inhibition at 10 µM with Cryptosporidium parvum was determined as 36.9%.

Regarding `C=CC1=C(C)/C(=C/c2[nH]c(Cc3[nH]c(/C=C4\NC(=O)C(C)=C4C=C)c(C)c3CCC(=O)O)c(CCC(=O)O)c2C)NC1=O` [BILIRUBIN], in the series on HCT-8 host cells (Hs18S) (human, 41 h, 10 μM), the “Hs18S ΔCT” value is reported as -0.01. For the same molecule, in the series “in vitro” (human), the cytotoxicity at 41 h, 10 µM was -0.9%. The inhibition at 10 µM with Cryptosporidium parvum is -7.55%.

In the case of `O=C(O)CCCC[C@@H]1SC[C@@H]2NC(=O)N[C@@H]21` [BIOTIN], the “Hs18S ΔCT” value in the series on HCT-8 host cells (Hs18S) (setting [1]) is recorded as -0.24. Moreover, the cytotoxicity at 10 µM in “in vitro” was -18.4%. For the same molecule, the inhibition at 10 µM in the series with Cryptosporidium parvum stood at 11.9%.

With `CCc1ccc2c(O)c3c(cc2c1C(=O)OC)C(=O)c1c(O)ccc(O)c1C3=O` [BISANHYDRORUTILANTINONE], the “Hs18S ΔCT” value in the series on HCT-8 host cells (Hs18S) (human, 41 h, 10 μM) was -0.16. The cytotoxicity at 41 h, 10 µM in “in vitro” (human) is -12%. Besides, the inhibition at 10 µM with Cryptosporidium parvum turned out to be 24.5%.

On to `CC(C)(c1ccc(O)cc1)c1ccc(O)cc1` [BISPHENOL A], for which the “Hs18S ΔCT” value in the series with HCT-8 host cells (Hs18S) (human, 41 h, 10 μM) was -0.20. The cytotoxicity at 41 h, 10 µM in “in vitro” (human) was -15%. Besides, the inhibition at 10 µM with Cryptosporidium parvum is -35.2%.

Turning to `COC(=O)/C=C/C(C)=C\C=C\C(C)=C\C=C\C=C(C)\C=C\C=C(C)\C=C\C(=O)O` [BIXIN], the “Hs18S ΔCT” value with HCT-8 host cells (Hs18S) (human, 41 h, 10 μM) is recorded as 0.60. Also, the cytotoxicity at 41 h, 10 µM in “in vitro” (human) came out at 34.2%. In addition, the inhibition at 10 µM in the series with Cryptosporidium parvum came to 49.3%.

By inhibition is commonly meant the change of the read-out against control, counted positive when it falls.
